From US7932270B2 (Cytokinetics, Inc., priority 2006, dated 2011)

target: T1, chicken gizzard smooth muscle myosin subfragment-1 chemically crosslinked to cardiac or skeletal actin (Gallus gallus, UniProt P10587); assay: Smooth muscle myosin ATPase dose response assay (pyruvate kinase/horseradish peroxidase/pyruvate oxidase-coupled, amplex red fluorescence); assay type: biochemical; conditions: read-out: IC50 Arithmetic Mean
T1 construct: chicken gizzard smooth muscle myosin subfragment-1; from tissue; host or cells: chicken gizzard
T1 sequence (P02607 2-151): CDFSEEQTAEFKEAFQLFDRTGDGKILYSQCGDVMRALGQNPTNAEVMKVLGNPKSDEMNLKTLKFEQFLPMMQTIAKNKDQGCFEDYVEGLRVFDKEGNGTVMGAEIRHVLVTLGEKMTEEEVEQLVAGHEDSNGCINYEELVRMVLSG
T1 sequence (P10587 84-789): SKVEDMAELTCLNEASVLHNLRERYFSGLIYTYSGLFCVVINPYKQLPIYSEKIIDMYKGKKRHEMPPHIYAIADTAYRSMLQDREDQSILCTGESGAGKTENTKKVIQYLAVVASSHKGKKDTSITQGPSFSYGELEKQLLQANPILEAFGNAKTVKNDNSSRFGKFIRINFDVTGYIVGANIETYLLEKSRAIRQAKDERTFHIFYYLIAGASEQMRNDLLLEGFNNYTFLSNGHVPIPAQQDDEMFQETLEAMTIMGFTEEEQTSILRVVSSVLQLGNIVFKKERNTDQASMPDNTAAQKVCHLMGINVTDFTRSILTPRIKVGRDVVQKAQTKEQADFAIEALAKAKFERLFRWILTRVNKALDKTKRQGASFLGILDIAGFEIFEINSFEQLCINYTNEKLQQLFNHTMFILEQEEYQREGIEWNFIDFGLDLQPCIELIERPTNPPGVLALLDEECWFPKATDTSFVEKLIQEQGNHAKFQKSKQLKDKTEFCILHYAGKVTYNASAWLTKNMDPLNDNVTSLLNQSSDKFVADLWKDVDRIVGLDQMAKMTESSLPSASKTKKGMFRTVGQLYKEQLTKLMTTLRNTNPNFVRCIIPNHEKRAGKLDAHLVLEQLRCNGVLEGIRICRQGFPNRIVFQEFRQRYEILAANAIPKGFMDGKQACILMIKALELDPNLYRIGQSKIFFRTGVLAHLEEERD
Outline: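 Chicken gizzard myosin S1 crosslinked to cardiac or skeletal actin, titrated to a set hydrolysis rate; 0.15 mM ATP, 12 mM PIPES pH 7.00, 100 mM KCl, 2 mM MgCl2. Pyruvate kinase/pyruvate oxidase/HRP coupling with amplex red fluorescence; IC50 from 4-parameter fit.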

In order of falling IC50:
1. COC(=O)[C@@H](CNC(=O)c1cc(F)c(-c2cnn(C)c2)nc1NCCc1cccc(F)c1)NC(=O)OC(C)(C)C [methyl (2R)-2-[(tert-butoxy)carbonylamino]-3-[(5-fluoro-2-{[2-(3-fluorophenyl)ethyl]amino}-6-(1-methylpyrazol-4-yl)(3-pyridyl))carbonylamino]propanoate]  90800 nM
2. NCc1ccc(-c2ccccc2)nc1NCCc1cccc(F)c1 [[3-(aminomethyl)-6-phenyl(2-pyridyl)][2-(3 fluorophenyl)ethyl]amine]  39500 nM
3. O=C(NCc1cccnc1)c1ccc(-c2ccc(C(=O)NCc3cccnc3)c(NCCc3cccc(F)c3)n2)nc1NCCc1cccc(F)c1 [[2-{[2-(3-fluorophenyl)ethyl]amino}-6-(6-{[2-(3-fluorophenyl)ethyl]amino}-5-[N-(3-pyridylmethyl)carbamoyl](2-pyridyl))(3-pyridyl)]-N-(3-pyridylmethyl)carboxamide]  30600 nM
4. COC(=O)c1cccc(CCNc2nc(-c3ccccc3)ccc2C(=O)NCc2cccnc2)c1 [methyl 3-[2-({6-phenyl-3-[N-(3-pyridylmethyl)carbamoyl]-2-pyridyl}amino)ethyl]benzoate]  28100 nM
5. COC(=O)c1cc(Cl)c(-c2cnn(C)c2)nc1NCCc1cccc(F)c1 [methyl 5-chloro-2-{[2-(3-fluorophenyl)ethyl]amino}-6-(1-methylpyrazol-4-yl)pyridine-3-carboxylate]  15500 nM
6. CCOC(=O)CNCC(O)c1ccc(-c2ccccc2)nc1NCCc1cccc(F)c1 (stereo not shown) [ethyl 2-{[2-(2-{[2-(3-fluorophenyl)ethyl]amino}-6-phenyl(3-pyridyl))-2-hydroxyethyl]amino}acetate]  15100 nM
7. N#Cc1ccccc1-c1ccc(C(=O)NC[C@H]2CN(C(=O)CCCN)CCN2)c(NCCc2cccc(F)c2)n1 [N-{[(2S)-4-(4-aminobutanoyl)piperazin-2-yl]methyl}(6-(2-cyanophenyl)-2-{[2-(3-fluorophenyl)ethyl]amino}(3-pyridyl))carboxamide]  12400 nM
8. CCCNc1nc(-c2ccccc2)ccc1C(=O)NCc1cccnc1 [[6-phenyl-2-(propylamino)(3-pyridyl)]-N-(3-pyridylmethyl)carboxamide]  11400 nM
9. COC(=O)CNC[C@H](N)CNC(=O)c1ccc(-c2cnn(C)c2)nc1NCCc1cccc(F)c1 [methyl 2-({(2S)-2-amino-3-[(2-{[2-(3-fluorophenyl)ethyl]amino}-6-(1-methylpyrazol-4-yl)(3-pyridyl))carbonylamino]propyl}amino)acetate]  10900 nM
10. O=C(NCc1cccnc1)c1ccc(-c2ccccc2)nc1NCCc1cccc(C(F)(F)F)c1 [[6-phenyl-2-({2-[3-(trifluoromethyl)phenyl]ethyl}amino)(3-pyridyl)]-N-(3-pyridylmethyl)carboxamide]  8250 nM
11. CN1CCN(C(=O)CCCN)C[C@@H]1CNC(=O)c1ccc(-c2ccccc2C#N)nc1NCCc1cccc(F)c1 [N-{[(2S)-4-(4-aminobutanoyl)-1-methylpiperazin-2-yl]methyl}(6-(2-cyanophenyl)-2-{[2-(3-fluorophenyl)ethyl]amino}(3-pyridyl))carboxamide]  6720 nM
12. CCOC(=O)CCNC(=O)c1ccc(-c2ccccc2C#N)nc1NCCc1cccc(F)c1 [ethyl 3-[(6-(2-cyanophenyl)-2-{[2-(3-fluorophenyl)ethyl]amino}-3-pyridyl)carbonylamino]propanoate]  4790 nM
13. COC(=O)CCC(=O)N1CCC[C@@H]1CNC(=O)c1ccc(-c2cnn(C)c2)nc1NCCc1cccc(F)c1 [methyl 4-((2R)-2-{[(2-{[2-(3-fluorophenyl)ethyl]amino}-6-(1-methylpyrazol-4-yl)(3-pyridyl))carbonylamino]methyl}pyrrolidinyl)-4-oxobutanoate]  3940 nM
14. N#Cc1ccccc1-c1ccc(C(=O)NC[C@H]2CN(CCCN)CC(=O)N2)c(NCCc2cccc(F)c2)n1 [N-{[(2S)-4-(3-aminopropyl)-6-oxopiperazin-2-yl]methyl}(6-(2-cyanophenyl)-2-{[2-(3-fluorophenyl)ethyl]amino}(3-pyridyl))carboxamide]  2810 nM
15. COC(=O)[C@H](N)CNC(=O)c1ccc(-c2ccccc2C#N)nc1NCCc1cccc(F)c1 [methyl (2R)-2-amino-3-[(6-(2-cyanophenyl)-2-{[2-(3-fluorophenyl)ethyl]amino}(3-pyridyl))carbonylamino]propanoate]  2290 nM
16. COC(=O)N1CCC(CNC(=O)c2ccc(-c3ccccc3C#N)nc2NCCc2cccc(F)c2)CC1 [methyl 4-{[(6-(2-cyanophenyl)-2-{[2-(3-fluorophenyl)ethyl]amino}-3-pyridyl)carbonylamino]methyl}piperidinecarboxylate]  2130 nM
17. COC(=O)CNC(=O)c1ccc(-c2ccccc2)nc1NCCc1ccccc1 [methyl 2-({6-phenyl-2-[(2-phenylethyl)amino]-3-pyridyl}carbonylamino)acetate]  1340 nM
18. N#Cc1ccccc1-c1ccc(C(=O)NC[C@@H]2CCCN(C(=O)CCN)C2)c(NCCc2cccc(F)c2)n1 [N-{[(3S)-1-(3-aminopropanoyl)(3-piperidyl)]methyl}(6-(2-cyanophenyl)-2-{[2-(3-fluorophenyl)ethyl]amino}(3-pyridyl))carboxamide]  1260 nM
19. COC(=O)c1ccc(-c2ccc(C(=O)NCc3cccnc3)c(NCCc3ccccn3)n2)cc1 [methyl 4-{6-[(2-(2-pyridyl)ethyl)amino]-5-[N-(3-pyridylmethyl)carbamoyl]-2-pyridyl}benzoate]  989 nM
20. COC(=O)CNC[C@H](N)CNC(=O)c1ccc(-c2ccccc2C#N)nc1NCCc1cccc(F)c1 [methyl 2-({(2S)-2-amino-3-[(6-(2-cyanophenyl)-2-{[2-(3-fluorophenyl)ethyl]amino}(3-pyridyl))carbonylamino]propyl}amino)acetate]  913 nM
21. N#Cc1ccccc1-c1ccc(C(=O)NC[C@@H]2CCCN(C(=O)CN)C2)c(NCCc2cccc(F)c2)n1 [N-{[(3S)-1-(2-aminoacetyl)(3-piperidyl)]methyl}(6-(2-cyanophenyl)-2-{[2-(3-fluorophenyl)ethyl]amino}(3-pyridyl))carboxamide]  755 nM
22. COC(=O)[C@@H](C)NC(=O)c1ccc(-c2ccccc2C#N)nc1NCCc1cccc(F)c1 [methyl (2R)-2-[(6-(2-cyanophenyl)-2-{[2-(3-fluorophenyl)ethyl]amino}(3-pyridyl))carbonylamino]propanoate]  743 nM
23. COC(=O)CCCNC(=O)c1ccc(-c2ccccc2C#N)nc1NCCc1cccc(F)c1 [methyl 4-[(6-(2-cyanophenyl)-2-{[2-(3-fluorophenyl)ethyl]amino}-3-pyridyl)carbonylamino]butanoate]  713 nM
24. COC(=O)CCC(=O)N1CCC[C@@H]1CNC(=O)c1ccc(-c2ccccc2C#N)nc1NCCc1cccc(F)c1 [methyl 4-((2R)-2-{[(6-(2-cyanophenyl)-2-{[2-(3-fluorophenyl)ethyl]amino}(3-pyridyl))carbonylamino]methyl}pyrrolidinyl)-4-oxobutanoate]  657 nM
25. COC(=O)[C@H](N)CNC(=O)c1cc(F)c(-c2cnn(C)c2)nc1NCCc1cccc(F)c1 [methyl (2R)-2-amino-3-[(5-fluoro-2-{[2-(3-fluorophenyl)ethyl]amino}-6-(1-methylpyrazol-4-yl)(3-pyridyl))carbonylamino]propanoate]  568 nM
26. COC(=O)CCC(=O)N1CCC[C@@H]1CNC(=O)c1cc(F)c(-c2cnn(C)c2)nc1NCCc1cccc(F)c1 [methyl 4-((2R)-2-{[(5-fluoro-2-{[2-(3-fluorophenyl)ethyl]amino}-6-(1-methylpyrazol-4-yl)(3-pyridyl))carbonylamino]methyl}pyrrolidinyl)-4-oxobutanoate]  534 nM
27. COC(=O)CCC(=O)N1CC[C@@H]1CNC(=O)c1ccc(-c2ccccc2C#N)nc1NCCc1cccc(F)c1 [methyl 4-((2R)-2-{[(6-(2-cyanophenyl)-2-{[2-(3-fluorophenyl)ethyl]amino}(3-pyridyl))carbonylamino]methyl}azetidinyl)-4-oxobutanoate]  519 nM
28. COC(=O)[C@@H](CO)NC(=O)c1ccc(-c2ccccc2C#N)nc1NCCc1cccc(F)c1 [methyl (2R)-2-[(6-(2-cyanophenyl)-2-{[2-(3-fluorophenyl)ethyl]amino}(3-pyridyl))carbonylamino]-3-hydroxypropanoate]  513 nM
29. N#Cc1ccccc1-c1ccc(C(=O)NC[C@H]2CCCN(C(=O)CCCN)C2)c(NCCc2cccc(F)c2)n1 [N-{[(3R)-1-(4-aminobutanoyl)(3-piperidyl)]methyl}(6-(2-cyanophenyl)-2-{[2-(3-fluorophenyl)ethyl]amino}(3-pyridyl))carboxamide]  512 nM
30. N#Cc1ccccc1-c1ccc(C(=O)NC[C@H]2CCCN(C(=O)CN)C2)c(NCCc2cccc(F)c2)n1 [N-{[(3R)-1-(2-aminoacetyl)(3-piperidyl)]methyl}(6-(2-cyanophenyl)-2-{[2-(3-fluorophenyl)ethyl]amino}(3-pyridyl))carboxamide]  246 nM
31. COC(=O)N1CC[C@@H]1CNC(=O)c1ccc(-c2cn[nH]c2)nc1NCCc1cccc(F)c1 [methyl (2R)-2-{[(2-{[2-(3-fluorophenyl)ethyl]amino}-6-pyrazol-4-yl(3-pyridyl))carbonylamino]methyl}azetidinecarboxylate]  245 nM
32. N#Cc1ccccc1-c1ccc(C(=O)NC[C@H]2CCCN(C(=O)CCN)C2)c(NCCc2cccc(F)c2)n1 [N-{[(3R)-1-(3-aminopropanoyl)(3-piperidyl)]methyl}(6-(2-cyanophenyl)-2-{[2-(3-fluorophenyl)ethyl]amino}(3-pyridyl))carboxamide]  173 nM
33. COC(=O)CNC(=O)c1ccc(-c2ccccc2C#N)nc1NCCc1cccc(F)c1 [methyl 2-[(6-(2-cyanophenyl)-2-{[2-(3-fluorophenyl)ethyl]amino}-3-pyridyl)carbonylamino]acetate]  101 nM
34. COC(=O)c1cccc(CNC(=O)c2ccc(-c3ccccc3C#N)nc2NCCc2cccc(F)c2)n1 [methyl 6-{[(6-(2-cyanophenyl)-2-{[2-(3-fluorophenyl)ethyl]amino}-3-pyridyl)carbonylamino]methyl}pyridine-2-carboxylate]  64 nM
